Like-named read-outs stand apart in the source and are kept apart here.
Key:
EGFR Del19/C797S = EGFR Del19/C797S (Homo sapiens, UniProt P00533, C797S/DEL746-750); assay: Biochemical EGFR kinase inhibition assay (Lance Ultra TR-FRET), double mutant del19/C797S
In short: (§1)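 In this biochemical assay, phosphorylation after a one-hour room-temperature reaction was detected with europium-labelled anti-phosphopeptide antibody at 2 nM final concentration.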

EGFR L858R/C797S = EGFR L858R/C797S (Homo sapiens, UniProt P00533, C797S/L858R); assay: Biochemical EGFR kinase inhibition assay (Lance Ultra TR-FRET), double mutant L858R/C797S
In short: as §1

EGFR L858R/T790M/C797S = EGFR L858R/T790M/C797S (Homo sapiens, UniProt P00533, C797S/L858R/T790M); assay: Biochemical EGFR kinase inhibition assay (Lance Ultra TR-FRET), triple mutant L858R/T790M/C797S
Sequence of EGFR L858R/T790M/C797S (P00533 25-1210 T790M/C797S/L858R): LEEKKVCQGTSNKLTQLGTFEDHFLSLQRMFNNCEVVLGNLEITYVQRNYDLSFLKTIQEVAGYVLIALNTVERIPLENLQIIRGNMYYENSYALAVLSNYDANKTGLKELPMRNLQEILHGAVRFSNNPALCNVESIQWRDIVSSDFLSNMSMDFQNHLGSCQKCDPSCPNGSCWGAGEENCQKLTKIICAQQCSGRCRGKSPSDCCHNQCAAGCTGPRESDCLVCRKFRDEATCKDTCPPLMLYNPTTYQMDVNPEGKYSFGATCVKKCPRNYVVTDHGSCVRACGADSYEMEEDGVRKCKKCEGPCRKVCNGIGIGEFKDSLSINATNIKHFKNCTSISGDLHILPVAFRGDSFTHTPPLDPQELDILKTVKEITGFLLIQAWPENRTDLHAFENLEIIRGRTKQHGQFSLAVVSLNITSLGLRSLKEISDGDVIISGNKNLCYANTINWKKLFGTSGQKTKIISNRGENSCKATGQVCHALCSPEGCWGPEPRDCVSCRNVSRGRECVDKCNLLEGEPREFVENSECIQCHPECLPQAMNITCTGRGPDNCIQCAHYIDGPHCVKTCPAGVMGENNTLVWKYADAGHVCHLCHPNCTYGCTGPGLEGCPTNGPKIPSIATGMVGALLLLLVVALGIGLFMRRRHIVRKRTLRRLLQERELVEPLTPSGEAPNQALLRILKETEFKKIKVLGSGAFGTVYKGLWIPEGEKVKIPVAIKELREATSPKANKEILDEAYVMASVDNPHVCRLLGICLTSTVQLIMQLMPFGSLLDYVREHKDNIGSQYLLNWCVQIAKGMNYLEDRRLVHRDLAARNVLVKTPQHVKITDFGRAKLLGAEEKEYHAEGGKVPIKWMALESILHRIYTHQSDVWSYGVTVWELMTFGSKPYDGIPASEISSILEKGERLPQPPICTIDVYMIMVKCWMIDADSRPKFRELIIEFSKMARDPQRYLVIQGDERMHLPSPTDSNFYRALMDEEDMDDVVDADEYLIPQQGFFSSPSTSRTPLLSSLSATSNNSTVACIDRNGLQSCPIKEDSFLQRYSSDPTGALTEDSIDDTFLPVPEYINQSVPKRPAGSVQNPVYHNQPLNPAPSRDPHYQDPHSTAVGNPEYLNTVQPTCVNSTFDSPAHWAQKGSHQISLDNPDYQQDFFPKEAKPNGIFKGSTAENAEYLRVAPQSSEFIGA
In short: as §1

EGFR Del19/T790M/C797S = EGFR Del19/T790M/C797S (Homo sapiens, UniProt P00533, C797S/DEL746-750/T790M); assay: Biochemical EGFR kinase inhibition assay (Lance Ultra TR-FRET), triple mutant del19/T790M/C797S
Sequence of EGFR Del19/T790M/C797S (P00533 with tags, fused parts or gaps DEL746-750/T790M/C797S): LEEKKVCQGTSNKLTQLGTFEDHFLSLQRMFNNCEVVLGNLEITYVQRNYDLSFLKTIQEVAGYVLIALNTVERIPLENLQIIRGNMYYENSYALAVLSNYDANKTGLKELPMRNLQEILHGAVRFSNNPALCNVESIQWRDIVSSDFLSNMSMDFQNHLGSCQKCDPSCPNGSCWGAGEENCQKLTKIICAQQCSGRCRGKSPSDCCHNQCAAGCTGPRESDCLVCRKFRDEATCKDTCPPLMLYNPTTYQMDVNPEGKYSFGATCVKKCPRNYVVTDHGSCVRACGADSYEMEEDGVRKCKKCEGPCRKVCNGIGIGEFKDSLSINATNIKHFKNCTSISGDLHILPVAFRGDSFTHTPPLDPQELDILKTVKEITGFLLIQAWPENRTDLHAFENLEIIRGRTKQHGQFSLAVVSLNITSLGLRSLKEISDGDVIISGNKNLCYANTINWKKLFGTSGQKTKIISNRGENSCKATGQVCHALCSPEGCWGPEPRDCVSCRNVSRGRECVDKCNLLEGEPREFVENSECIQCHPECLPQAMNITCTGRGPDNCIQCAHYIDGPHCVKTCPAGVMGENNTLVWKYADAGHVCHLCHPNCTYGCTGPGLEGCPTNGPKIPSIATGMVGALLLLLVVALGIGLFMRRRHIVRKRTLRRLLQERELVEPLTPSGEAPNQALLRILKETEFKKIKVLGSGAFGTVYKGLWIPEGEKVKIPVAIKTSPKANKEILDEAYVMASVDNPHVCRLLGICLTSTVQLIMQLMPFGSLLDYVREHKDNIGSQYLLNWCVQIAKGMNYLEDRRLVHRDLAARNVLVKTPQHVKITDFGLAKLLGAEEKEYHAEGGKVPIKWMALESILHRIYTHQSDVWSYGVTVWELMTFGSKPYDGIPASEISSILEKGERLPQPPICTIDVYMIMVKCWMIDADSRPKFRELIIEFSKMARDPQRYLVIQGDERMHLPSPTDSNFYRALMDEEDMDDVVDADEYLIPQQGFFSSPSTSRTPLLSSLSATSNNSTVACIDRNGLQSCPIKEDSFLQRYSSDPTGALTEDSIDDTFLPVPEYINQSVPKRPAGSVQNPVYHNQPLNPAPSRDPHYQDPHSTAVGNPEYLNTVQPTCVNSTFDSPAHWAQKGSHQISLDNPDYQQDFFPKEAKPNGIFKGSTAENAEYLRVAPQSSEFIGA
In short: as §1

EGFR wildtype (WT) = EGFR wildtype (WT) (Homo sapiens, UniProt P00533); assay: Biochemical EGFR kinase inhibition assay (Lance Ultra TR-FRET), wildtype
Sequence of EGFR wildtype (WT) (P00533 25-1210): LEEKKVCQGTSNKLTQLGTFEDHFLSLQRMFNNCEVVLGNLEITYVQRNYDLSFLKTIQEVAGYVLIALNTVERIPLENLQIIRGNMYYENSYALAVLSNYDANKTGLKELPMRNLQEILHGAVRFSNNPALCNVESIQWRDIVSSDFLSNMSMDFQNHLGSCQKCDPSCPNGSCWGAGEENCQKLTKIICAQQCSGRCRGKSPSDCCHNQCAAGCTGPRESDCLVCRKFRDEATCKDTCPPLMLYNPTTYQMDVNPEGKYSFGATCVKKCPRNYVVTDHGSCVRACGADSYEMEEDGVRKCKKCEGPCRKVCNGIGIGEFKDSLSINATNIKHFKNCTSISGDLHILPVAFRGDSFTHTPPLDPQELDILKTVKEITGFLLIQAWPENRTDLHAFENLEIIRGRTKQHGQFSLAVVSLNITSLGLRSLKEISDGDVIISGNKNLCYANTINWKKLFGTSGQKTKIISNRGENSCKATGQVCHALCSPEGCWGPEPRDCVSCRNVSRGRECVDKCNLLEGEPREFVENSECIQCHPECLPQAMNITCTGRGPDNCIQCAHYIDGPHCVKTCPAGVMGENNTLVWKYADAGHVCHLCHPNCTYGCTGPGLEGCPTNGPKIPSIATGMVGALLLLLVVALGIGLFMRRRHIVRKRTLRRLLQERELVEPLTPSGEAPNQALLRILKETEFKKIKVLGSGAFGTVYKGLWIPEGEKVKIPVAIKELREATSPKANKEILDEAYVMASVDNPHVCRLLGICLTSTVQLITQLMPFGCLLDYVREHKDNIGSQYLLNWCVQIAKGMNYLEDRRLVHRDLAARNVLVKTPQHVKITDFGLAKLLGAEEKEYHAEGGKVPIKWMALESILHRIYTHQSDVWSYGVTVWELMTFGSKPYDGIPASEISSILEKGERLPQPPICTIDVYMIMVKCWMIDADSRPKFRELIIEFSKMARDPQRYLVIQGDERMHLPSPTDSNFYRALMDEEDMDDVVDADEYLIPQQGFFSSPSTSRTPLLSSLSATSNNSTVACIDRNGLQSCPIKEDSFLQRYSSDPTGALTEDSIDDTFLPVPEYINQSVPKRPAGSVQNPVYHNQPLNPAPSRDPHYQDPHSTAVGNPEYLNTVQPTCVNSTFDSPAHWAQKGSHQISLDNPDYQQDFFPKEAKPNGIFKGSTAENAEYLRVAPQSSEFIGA
In short: as §1

[1] = IC50 Del19/C797S (nM), 100 μM ATP
[2] = Km ATP, read-out: IC50 Del19/C797S (nM), Km ATP
[3] = IC50 L858R/C797S (nM), 100 μM ATP
[4] = Km ATP, read-out: IC50 L858R/C797S (nM), Km ATP
[5] = IC50 L858R/T790M/C797S (nM), 100 μM ATP
[6] = Km ATP, read-out: IC50 L858R/T790M/C797S (nM), Km ATP
[7] = IC50 Del19/T790M/C797S (nM), 100 μM ATP
[8] = Km ATP, read-out: IC50 Del19/T790M/C797S (nM), Km ATP
[9] = Km ATP, read-out: IC50 WT (nM), Km ATP

Sequence of EGFR Del19/C797S (P00533 with tags, fused parts or gaps DEL746-750/C797S): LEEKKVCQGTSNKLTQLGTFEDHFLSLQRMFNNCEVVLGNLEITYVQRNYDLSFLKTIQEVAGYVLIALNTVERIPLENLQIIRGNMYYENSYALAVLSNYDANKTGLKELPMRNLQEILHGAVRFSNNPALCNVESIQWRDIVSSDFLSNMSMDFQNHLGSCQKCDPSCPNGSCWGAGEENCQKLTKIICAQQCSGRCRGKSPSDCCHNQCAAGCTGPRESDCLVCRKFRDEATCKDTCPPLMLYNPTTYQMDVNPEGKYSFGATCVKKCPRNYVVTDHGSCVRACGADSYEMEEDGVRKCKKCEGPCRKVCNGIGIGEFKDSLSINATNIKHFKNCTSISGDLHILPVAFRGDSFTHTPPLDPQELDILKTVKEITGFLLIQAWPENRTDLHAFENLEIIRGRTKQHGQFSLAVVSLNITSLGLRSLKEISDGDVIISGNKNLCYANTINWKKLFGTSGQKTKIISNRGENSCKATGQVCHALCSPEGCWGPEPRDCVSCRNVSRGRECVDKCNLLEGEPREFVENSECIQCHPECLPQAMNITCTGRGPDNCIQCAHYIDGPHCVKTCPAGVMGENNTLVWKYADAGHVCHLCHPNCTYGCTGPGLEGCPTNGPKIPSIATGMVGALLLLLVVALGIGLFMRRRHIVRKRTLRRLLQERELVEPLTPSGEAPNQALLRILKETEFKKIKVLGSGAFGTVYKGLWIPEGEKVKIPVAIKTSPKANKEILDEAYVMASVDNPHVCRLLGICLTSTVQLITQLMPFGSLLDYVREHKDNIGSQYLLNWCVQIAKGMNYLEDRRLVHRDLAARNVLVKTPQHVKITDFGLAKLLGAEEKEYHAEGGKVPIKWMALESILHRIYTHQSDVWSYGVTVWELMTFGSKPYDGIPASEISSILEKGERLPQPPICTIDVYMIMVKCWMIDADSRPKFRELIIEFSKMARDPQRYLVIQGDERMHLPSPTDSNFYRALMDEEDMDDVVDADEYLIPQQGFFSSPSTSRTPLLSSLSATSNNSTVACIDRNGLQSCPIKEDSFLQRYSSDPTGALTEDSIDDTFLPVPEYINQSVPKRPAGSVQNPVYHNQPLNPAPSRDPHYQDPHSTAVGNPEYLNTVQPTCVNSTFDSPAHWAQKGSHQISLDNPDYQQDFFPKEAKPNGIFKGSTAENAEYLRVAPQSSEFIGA

IC50 (EGFR Del19/C797S; [1]) | IC50 (EGFR Del19/C797S; [2]) | IC50 (EGFR L858R/C797S; [3]) | IC50 (EGFR L858R/C797S; [4]) | IC50 (EGFR L858R/T790M/C797S; [5]) | IC50 (EGFR L858R/T790M/C797S; [6]) | IC50 (EGFR Del19/T790M/C797S; [7]) | IC50 (EGFR Del19/T790M/C797S; [8]) | IC50 (EGFR wildtype (WT); IC50 WT (nM), 100 μM ATP) | IC50 (EGFR wildtype (WT); [9]) | Structure (SMILES)
3.5 nM | 3.3 nM | 46.6 nM | 3.9 nM | 1.3 nM | 0.1 nM | 0.7 nM | 0.4 nM | > 10000 nM | 10.5 nM | COC1(O)CCN(c2cc(Nc3ccnc(-c4cnn(S(=O)(=O)C5CC5)c4)n3)ncc2C#Cc2ncc(CN3CCOCC3)cn2)CC1 [Example 365, 1-(2-((2-(1-(Cyclopropylsulfonyl)-1H-pyrazol-4-yl)pyrimidin-4-yl)amino)-5-((5-(morpholinomethyl)pyrimidin-2-yl)ethynyl)pyridin-4-yl)-4-methoxypiperidin-4-ol]
4.4 nM | 2.5 nM | 16.7 nM | 2.9 nM | 1.1 nM | 0.1 nM | 0.5 nM | 0.3 nM | > 10000 nM | 7.2 nM | O=S(=O)(C1CC1)n1cc(-c2nccc(Nc3cc(N4CCC5(CCCO5)CC4)c(C#Cc4ncc(CN5CCOCC5)cn4)cn3)n2)cn1 [Example 366, 2-(1-(Cyclopropylsulfonyl)-1H-pyrazol-4-yl)-N-(5-((5-(morpholinomethyl)pyrimidin-2-yl)ethynyl)-4-(1-oxa-8-azaspiro[4.5]decan-8-yl)pyridin-2-yl)pyrimidin-4-amine]
3.5 nM | 1.6 nM | 25.6 nM | 3.9 nM | 1.2 nM | 0.1 nM | 0.4 nM | 0.3 nM | > 10000 nM | 7.6 nM | O=S(=O)(C1CC1)n1cc(-c2nccc(Nc3cc(N4CCC5(CCO5)CC4)c(C#Cc4ncc(CN5CCOCC5)cn4)cn3)n2)cn1 [Example 367, 2-(1-(Cyclopropylsulfonyl)-1H-pyrazol-4-yl)-N-(5-((5-(morpholinomethyl)pyrimidin-2-yl)ethynyl)-4-(1-oxa-7-azaspiro[3.5]nonan-7-yl)pyridin-2-yl)pyrimidin-4-amine]
0.7 nM | 0.6 nM | 1.4 nM | 0.7 nM | 0.2 nM | 0.1 nM | 0.4 nM | 0.4 nM | 197 nM | 0.8 nM | CN1CCN(Cc2ccc(C#Cc3cnc(Nc4ccnc(-c5cnn(S(=O)(=O)C6CC6)c5)n4)cc3N3CCC(C)(O)CC3)cc2)CC1 [Example 368, 1-(2-((2-(1-(Cyclopropylsulfonyl)-1H-pyrazol-4-yl)pyrimidin-4-yl)amino)-5-((4-((4-methylpiperazin-1-yl)methyl)phenyl)ethynyl)pyridin-4-yl)-4-methylpiperidin-4-ol]
2 nM | 1.9 nM | 6.4 nM | 2.4 nM | 0.4 nM | 0.3 nM | 0.4 nM | 0.9 nM | 1200 nM | 3.1 nM | COC1(O)CCN(c2cc(Nc3ccnc(-c4cnn(S(=O)(=O)C5CC5)c4)n3)ncc2C#Cc2ccc(CN3CCN(C)CC3)cc2)CC1 [Example 369, 1-(2-((2-(1-(Cyclopropylsulfonyl)-1H-pyrazol-4-yl)pyrimidin-4-yl)amino)-5-((4-((4-methylpiperazin-1-yl)methyl)phenyl)ethynyl)pyridin-4-yl)-4-methoxypiperidin-4-ol]
0.9 nM | 0.9 nM | 5.1 nM | 1.4 nM | 0.8 nM | 0.1 nM | 0.3 nM | 0.3 nM | > 10000 nM | 1.9 nM | CN1CCN(Cc2ccc(C#Cc3cnc(Nc4ccnc(-c5cnn(S(=O)(=O)C6CC6)c5)n4)cc3N3CCC4(CCO4)CC3)cc2)CC1 [Example 370, 2-(1-(Cyclopropylsulfonyl)-1H-pyrazol-4-yl)-N-(5-((4-((4-methylpiperazin-1-yl)methyl)phenyl)ethynyl)-4-(1-oxa-7-azaspiro[3.5]nonan-7-yl)pyridin-2-yl)pyrimidin-4-amine]
2.5 nM | 1.5 nM | 53.2 nM | 3.3 nM | 0.4 nM | 0.1 nM | 0.3 nM | 0.3 nM | 3730 nM | 9.4 nM | COC1(O)CCN(c2cc(Nc3ccnc(-c4cnn(S(=O)(=O)C5CC5)c4)n3)ncc2C#CC2CCN(C)C2)CC1 (centres unmarked) [Example 371, 1-(2-((2-(1-(Cyclopropylsulfonyl)-1H-pyrazol-4-yl)pyrimidin-4-yl)amino)-5-((1-methylpyrrolidin-3-yl)ethynyl)pyridin-4-yl)-4-methoxypiperidin-4-ol]
1.6 nM | 0.8 nM | 22.9 nM | 1 nM | 0.3 nM | 0.1 nM | 0.3 nM | 0.2 nM | 5110 nM | 5.5 nM | CN1CCC(C#Cc2cnc(Nc3ccnc(-c4cnn(S(=O)(=O)C5CC5)c4)n3)cc2N2CCC3(CCCO3)CC2)C1 (centres unmarked) [Example 372, 2-(1-(Cyclopropylsulfonyl)-1H-pyrazol-4-yl)-N-(5-((1-methylpyrrolidin-3-yl)ethynyl)-4-(1-oxa-8-azaspiro[4.5]decan-8-yl)pyridin-2-yl)pyrimidin-4-amine]
1.8 nM | 1.6 nM | 41.6 nM | 2.5 nM | 0.4 nM | 0.1 nM | 0.2 nM | 0.2 nM | 9540 nM | 10.8 nM | CN1CCC(C#Cc2cnc(Nc3ccnc(-c4cnn(S(=O)(=O)C5CC5)c4)n3)cc2N2CCC3(CCO3)CC2)C1 (centres unmarked) [Example 373, 2-(1-(Cyclopropylsulfonyl)-1H-pyrazol-4-yl)-N-(5-((1-methylpyrrolidin-3-yl)ethynyl)-4-(1-oxa-7-azaspiro[3.5]nonan-7-yl)pyridin-2-yl)pyrimidin-4-amine]
2.4 nM | 1.3 nM | 75.1 nM | 4.1 nM | 0.6 nM | 0.3 nM | 0.3 nM | 0.3 nM | 9810 nM | 10.4 nM | O=S(=O)(C1CC1)n1cc(-c2nccc(Nc3cc(NC4CCC(CO)CC4)c(C#CC4CCCO4)cn3)n2)cn1 (centres unmarked) [Example 374, ((1s,4s)-4-((2-((2-(1-(Cyclopropylsulfonyl)-1H-pyrazol-4-yl)pyrimidin-4-yl)amino)-5-((tetrahydrofuran-2-yl)ethynyl)pyridin-4-yl)amino)cyclohexyl)methanol]
34.8 nM | 13.1 nM | 1920 nM | 82 nM | 8 nM | 1.3 nM | 3.2 nM | 2.5 nM | > 10000 nM | 122 nM | O=S(=O)(C1CC1)n1cc(-c2nccc(Nc3cc(NCC4CCC(O)CC4)c(C#CC4CCCO4)cn3)n2)cn1 (centres unmarked) [Example 375, (1 r,4r)-4-(((2-((2-(1-(Cyclopropylsulfonyl)-1H-pyrazol-4-yl)pyrimidin-4-yl)amino)-5-((tetrahydrofuran-2-yl)ethynyl)pyridin-4-yl)amino)methyl)cyclohexan-1-ol]
